Results on 1 compound are retold here after BindingDB's records for doi:10.1021/jm00394a022 (Pennsylvania State University, 1987).

Assay [1] deals with Glutamine synthetase (Escherichia coli) (UniProt P0A9C5). Description: Compound was evaluated for binding affinity by the inhibition of Glutamine synthetase (Escherichia coli) activity using biosynthetic assay [mixed Non-competitive inhibition].
The target in assay [2] is Glutamine synthetase (Pisum sativum). Description: Compound was evaluated for binding affinity by the inhibition of Glutamine synthetase (Pea seed) activity using biosynthetic assay [noncompetitive inhibition].
Assay [3] concerns the target Glutamine synthetase (Ovis aries). The assay can be described thus: Compound was evaluated for binding affinity by the inhibition of Glutamine synthetase (Ovine brain) activity using biosynthetic assay [competitive inhibition].

Chain of Glutamine synthetase (Escherichia coli) (P0A9C5 whole entry, looked up): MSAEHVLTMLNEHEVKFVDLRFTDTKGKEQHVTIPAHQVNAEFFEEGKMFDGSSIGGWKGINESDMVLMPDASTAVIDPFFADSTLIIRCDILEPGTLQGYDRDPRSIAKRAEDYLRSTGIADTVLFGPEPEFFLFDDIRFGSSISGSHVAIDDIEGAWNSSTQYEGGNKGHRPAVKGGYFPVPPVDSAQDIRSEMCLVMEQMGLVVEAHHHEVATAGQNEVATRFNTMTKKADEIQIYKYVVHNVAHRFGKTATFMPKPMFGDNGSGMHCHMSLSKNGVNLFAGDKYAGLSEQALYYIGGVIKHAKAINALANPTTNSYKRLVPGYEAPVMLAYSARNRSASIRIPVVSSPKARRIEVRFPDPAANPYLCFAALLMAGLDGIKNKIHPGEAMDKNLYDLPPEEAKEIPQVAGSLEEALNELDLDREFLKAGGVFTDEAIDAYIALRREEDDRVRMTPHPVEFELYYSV

As usually defined, the Ki is a dissociation constant, usually derived from enzyme kinetics or from competition with a known ligand. Turning to `NC(CCP(=O)(O)CP(=O)(O)O)C(=O)O` (stereo not drawn) [2-ammonio-4-[hydroxy(phosphonomethyl)phosphoryl]butanoate], the Ki stood at 75 µM in assay [1], 250 µM in assay [2] and 750 µM in assay [3].
